From patent US20250367229A1, “Treatment of Immune-Related Disorders, Kidney Disorders, Liver Disorders, Hemolytic Disorders, and Oxidative Stress-Associated Disorders Using NRH, NARH and Reduced Derivatives Thereof” (MitoPower LLC, priority 2021, published 2025)

Tests used:
[1] = Stability in human serum in vitro (absorbance over time); type: in vitro ADME; settings: 100 μM, 37° C.
Protocol: Three blood samples were collected from healthy human donors with the same blood group in serum separator vacutainer gel tubes. The samples were centrifuged at 1,800 g to separate serum. The serum samples obtained were pooled together into a separate tube.
NR, NRH and NRH-triacetate (NRHTA) were initially dissolved in DMSO and then diluted with normal saline to obtain a 1 mM stock solution of each compound. 100 μL of stock solution was added to 900 μL of pooled serum to assess the stability of the test compound in human serum. 200 μL of saline with 1,800 μL of pooled serum was used to prepare a solution for blanking and as a reference measurement. The stock solutions were diluted in the pooled serum and normal saline to prepare 100 μM solutions of the test compounds.
In previous experiments, spectral scans between 190 nm and 1100 nm were performed to determine absorbance maxima for NR, NRH and NRHTA, which have maximal absorbance at 265 nm, 340 nm and 331 nm, respectively, in solution.
The stability of a test compound in human serum was determined by a change in the concentration of the compound as measured by a change in absorbance at the maximal absorbance wavelength for the compound as a function of time. The test compounds at 100 μM were incubated in human serum at 37° C. Absorbance measurements were made at 0 min (T0), 5 min, 30 min, 120 min, 240 min, 360 min and 1440 min (24 hr). The relative change in absorbance compared to T0 was plotted and used for statistical analysis. The analysis was performed in triplicates.

[2] = system: peripheral blood mononuclear cells (PBMCs); assay: Extracellular acidification rate (ECAR, a measure of glycolysis) in activated PBMCs, Seahorse XF; type: cell-based, human; settings: 250 μM, 4 hr, PBMCs stimulated with anti-CD3 and anti-CD28 antibodies
Protocol: PBMCs (1.5×10^6) obtained from a healthy human adult donor were unstimulated or stimulated with anti-CD3 and anti-CD28 antibodies (1 μg/mL each) to induce T-cell activation, in the absence or presence of 250 μM NRH for 4 hr. The cells were then washed and plated on poly-D-lysine-coated Seahorse XF microplates at a density of 3×10^5 cells per well (5 replicates). The plates were centrifuged briefly and incubated at 37° C. in a non-CO2 incubator for 30 min to settle the cells in the bottom of the plate. Extracellular acidification rate (ECAR, a measure of glycolysis) and oxygen consumption rate (OCR, a measure of oxidative phosphorylation) were determined using a Seahorse XF cell mito stress test kit and a Seahorse Xfe96 analyzer (Agilent Technologies, Santa Clara, California) under basal condition or in response to 1.0 μM oligomycin (an inhibitor of ATP synthase), 1.5 μM carbonyl cyanide-p-trifluoromethoxyphenylhydrazone (FCCP, a mitochondrial uncoupler), 0.5 μM rotenone (an inhibitor of electron transport at complex I) and antimycin A (an inhibitor of electron transport at cytochrome c reductase). PBMCs include monocytes and lymphocytes including T cells, B cells and natural killer cells.

red blood cells (RBCs) = assay: H2O2-induced hemolysis in vitro; type: cell-based; settings: 2000, 200 and 20 μM, pre-incubation 1 hr at 37° C., then H2O2 4 hr
Protocol: Individual test compounds were dissolved in 0.9% normal saline to prepare 0.3 M stock solutions. A 0.3 M stock solution was added to a 20% suspension of washed red blood cells (RBCs) in saline to obtain final concentrations of 2000 μM, 200 μM and 20 μM of the compound. The RBC suspensions were incubated with the test compound at 37° C. for 1 hr prior to testing. A 2.5% H2O2 solution was prepared fresh by dilution with normal saline and chilled at 2-8° C. before use. Each RBC suspension containing the test compound was split into tubes A and B. 250 μL of the chilled H2O2 solution was added to 250 μL of RBC suspension in each tube while maintaining the tubes in an ice bath. The tubes were incubated at 37° C. for 4 hr, and then 4.5 mL of saline or de-ionized water was added to tube A or tube B, respectively. After the tubes were incubated for 10 min, the mixture in the tubes was centrifuged at 1800 g, and then absorbance was measured in the supernatant at 540 nm. The percentage of hemolysis was calculated as: […]

HEK293 cells = assay: NADH/NAD+ ratio in H2O2-exposed HEK293 cells (NAD/NADH-Glo); type: cell-based; settings: NRH at 100 and 1000 μM, NR at all tested concentrations (0.01-1000 μM)
Protocol: HEK293 cells were trypsinized and plated at a density of 60,000 cells per well. The cells were then treated with H2O2 (600 μM prepared with Dulbecco's Modified Eagle Medium [DMEM]) for 30 min. The media was then replaced with serum media (DMEM supplemented with 10% fetal bovine serum [FBS]) containing NRH or NR, and were incubated at 37° C. under 6% CO2 for 30 min or 6 hr. The cells were incubated with the following concentrations of NRH or NR: 0.01, 0.1, 1.0, 10, 100 and 1000 μM. NAD^+ and NADH levels at 30 min and 6 hr were estimated using the NAD/NADH-Glo Promega Bioluminescent assay. The results were expressed as fold change relative to the values obtained with untreated cells.

RBC hemoglobin = assay: H2O2-induced oxidative changes of RBC hemoglobin in vitro (spectral scans); type: cell-based, human
Protocol: A 4 M stock solution of sodium azide was prepared. One mL of the 4 M stock azide solution was diluted with 9 mL of phosphate-buffered saline (PBS, pH 7.4) to obtain a 0.4 M stock solution, which was further diluted with PBS to obtain a 0.01 M working solution of sodium azide. Eight mL of whole blood was collected in buffered acid citrate dextrose tubes from a healthy human donor. PBS was added to 500 μL of whole blood. The samples were centrifuged, and then the supernatant from each tube was discarded to obtain a red blood cell (RBC) pellet. Ten μL of 0.01 M sodium azide working solution was added to 20 μL of RBC suspension. Twenty μL of hydrogen peroxide (H2O2) diluted in PBS was added to the RBC suspension to obtain final concentrations of H2O2 ranging from 0.01 mM to 100 mM. The samples were incubated at 37° C. for 1.5 hr. 950 μL of de-ionized water was added to the samples, which were then incubated for 10 min to lyse the RBCs and obtain hemoglobin upon centrifugation at 1,500 g. Spectral scans of the lysed samples between 200 nm and 1100 nm were obtained in 2 nm increments, using a Systronics® dual-beam UV-spectrophotometer and de-ionized water as a blank. Samples incubated with PBS at 37° C. for 1-1.5 hr were used as controls to establish the oxidative effects of H2O2 on RBC hemoglobin. Absorbance at 576 nm is a measure of hemoglobin concentration in a sample, and oxidation of hemoglobin to methemoglobin results in a drop in absorbance at 576 nm and an increase in absorbance at 630 nm. Fantao et al., Anal. Biochem., 521:11-19, (2017). Stock solutions of NRH (29.6 mM) and NR (18.3 mM) were prepared in 0.9% normal saline. Appropriate quantities of the stock NRH or NR solution and PBS were added to 500 μL of whole blood to obtain final concentrations of NRH or NR ranging from 1 μM to 1000 μM. The whole blood samples with NRH or NR were mixed gently and incubated at 37° C. for 1-1.5 hr. The samples were centrifuged, and then the supernatant was discarded to obtain an RBC pellet for each sample.

CD4^+ T cells [3] = assay: Cell death including apoptosis (annexin V, flow cytometry) of CD4+ T cells with depolarized mitochondria; type: cell-based, human; settings: 250 μM, 24 hr, unstimulated or stimulated with anti-CD3 and anti-CD28 antibodies
Protocol: (§1) PBMCs (10^6 cells per test group) obtained from healthy human adult donors were unstimulated or stimulated with anti-CD3 and anti-CD28 antibodies to induce T-cell activation, in the absence or presence of 250 μM of NRH or NRH-triacetate (NRHTA). Measurements were made at 5, 15 and 24 hr after treatment.
(§2) After the indicated time of incubation, the PBMCs were stained with anti-CD3, anti-CD4 and anti-CD8 antibodies (Biolegend), JC-1 (1 μM, Thermo Fisher) and annexin V (Thermo Fisher) prior to analysis by flow cytometry. Annexin V binds to cell-surface phosphatidylserine, which is a marker for different forms of cell death including apoptosis and necrosis. The stained cells were re-suspended in phosphate-buffered saline (PBS) and acquired in a Cytek Aurora flow cytometer using a FlowJo software (v10) for analysis. About 200,000-300,000 cells were acquired in the flow cytometer for analysis. Standard procedures for spectral compensation were performed to obtain cell populations. Lymphocytes identified by forward and side scatter were gated to obtain CD3^+/CD4^+ and CD3^+/CD8^+ T-cell populations. Those T-cell populations were gated to identify the red and green signals for JC-1 aggregate and monomer, respectively, and annexin V. The percentage of cells staining green by JC-1 monomer was used to determine the percentage of cells with depolarized mitochondria. […]

CD8^+ T cells [4] = assay: Mitochondrial membrane depolarization (JC-1, flow cytometry) in CD8+ T cells; type: cell-based, human; settings: 250 μM, 24 hr, unstimulated or stimulated with anti-CD3 and anti-CD28 antibodies
Protocol: as §1, §2

CD4^+ T cells [5] = assay: Ex vivo polyclonal immune activation model: cytokine production in CD4+ T cells; type: cell-based, human; settings: stimulated with anti-CD3 and anti-CD28 antibodies; data not shown
Protocol: (§3) Heparinized venous blood was collected from healthy human adult donors. Peripheral blood mononuclear cells (PBMCs) were isolated by Ficoll-Hypaque density-gradient centrifugation. PBMCs (1.0×10^6) were seeded in round-bottom, 96-well plates in 200 μL of medium, unstimulated or stimulated with an anti-CD3 antibody ([…], clone-HIT3a, Biolegend) plus an anti-CD28 antibody (1 μg/mL, clone-CD28.2, Biolegend) to induce T-cell activation, and incubated in cell-culture medium. The PBMCs were unstimulated or stimulated with anti-CD3 and anti-CD28 antibodies to induce T-cell activation, in the absence or presence of 250 μM NRH. After 18 hours of incubation, lymphocytes were analyzed for intracellular levels of IFN-γ, TNF-α and IL-2 by flow cytometry. Intracellular cytokine production was stopped by treating the cells with Golgi stop after 1 hr of treatment.

CD8^+ T cells [6] = assay: Ex vivo polyclonal immune activation model: intracellular cytokine production in CD8+ T cells (flow cytometry); type: cell-based, human; settings: stimulated with anti-CD3 and anti-CD28 antibodies; data not shown
Protocol: as §3

CD8^+ T cells [7] = assay: Cell death including apoptosis (annexin V, flow cytometry) of CD8+ T cells with depolarized mitochondria; type: cell-based, human; settings: 250 μM, 24 hr, unstimulated or stimulated with anti-CD3 and anti-CD28 antibodies
Protocol: as §1, §2

CD4^+ T cells [8] = assay: Mitochondrial membrane depolarization (JC-1, flow cytometry) in CD4+ T cells; type: cell-based, human; settings: 250 μM, 24 hr, unstimulated or stimulated with anti-CD3 and anti-CD28 antibodies
Protocol: as §1, §2

compound remaining intact in human serum within 5 min ([1]; within 5 min of addition, absorbance at 265 nm) | SMILES | extracellular acidification rate (ECAR, a measure of glycolysis) in activated PBMCs [2] | H2O2-induced hemolysis (red blood cells (RBCs)) | NADH/NAD+ ratio in HEK293 cells exposed to H2O2 (HEK293 cells; 30 min of incubation) | NADH/NAD+ ratio in HEK293 cells exposed to H2O2 (HEK293 cells; 6 hr of incubation) | A576/A630 ratio (a measure of the hemoglobin/methemoglobin ratio) (RBC hemoglobin; RBCs exposed to 1 mM H2O2, 1 μM or 100 μM NRH, NR data not shown) | protection of hemoglobin from 1 mM H2O2-induced oxidative changes (amplitude of absorbance peaks at 576, 540, 434, 348 and 270 nm) (RBC hemoglobin; pre-incubation of RBCs with 1, 10 and 100 µM) | compound remaining intact in human serum after 6 hr ([1]; 6 hr) | compound remaining intact in human serum after 24 hr ([1]; 24 hr) | stability in human serum compared with NR ([1]; up to 24 hr, p<0.05) | cell death including apoptosis of CD4+ T cells with depolarized mitochondria (CD4^+ T cells [3]) | mitochondrial membrane depolarization in CD8+ T cells (CD8^+ T cells [4]) | production of pro-inflammatory cytokines (e.g., TNF-α, IL-2, IFN-γ) by CD4+ T cells (CD4^+ T cells [5]) | production of pro-inflammatory cytokines (e.g., TNF-α, IL-2, IFN-γ) by CD8+ T cells (CD8^+ T cells [6]) | cell death including apoptosis of CD8+ T cells with depolarized mitochondria (CD8^+ T cells [7]) | mitochondrial membrane depolarization in CD4+ T cells (CD4^+ T cells [8])
most of NR did not remain intact | NC(=O)c1ccc[n+]([C@@H]2O[C@H](CO)[C@@H](O)[C@H]2O)c1 [NR, nicotinamide riboside, reference compound] | Unlike NR (data not shown), NRH reduced glycolysis | neither NR (MP-02) nor NR-triacetate (MP-39) at any concentration tested, reduced H2O2-induced hemolysis | did not significantly affect | did not significantly affect | did not significantly affect | not with NR (MP02), protected hemoglobin | – | – | – | – | – | – | – | – | –
– | CC(=O)OC[C@H]1O[C@@H]([n+]2cccc(C(N)=O)c2)[C@H](OC(C)=O)[C@@H]1OC(C)=O.O=S(=O)([O-])C(F)(F)F [NR-triacetate, 3-Carboxamide-N-(2,3,5-tri-O-acetyl-β-D-ribofuranosyl)pyridinium Triflate, reference compound] | – | neither NR (MP-02) nor NR-triacetate (MP-39) at any concentration tested, reduced H2O2-induced hemolysis | – | – | – | – | – | – | – | – | – | – | – | – | –
– | CC(=O)OC[C@H]1O[C@@H](N2C=CCC(C(N)=O)=C2)[C@H](OC(C)=O)[C@@H]1OC(C)=O [NRH-triacetate, N-(2,3,5-tri-O-acetyl-β-D-ribofuranosyl)dihydronicotinamide] | – | reduced H2O2-induced hemolysis | – | – | – | – | Most of both NRH and NRH-triacetate remained intact | about 50% | much more stable | reduced cell death | significantly induced | reduced production of pro-inflammatory cytokines | reduced production of pro-inflammatory cytokines | reduced cell death | significantly induced
